Source: patent publication US10590422B2, “Anticancer therapeutic intervention” (PHYZAT BIOPHARMACEUTICALS, LDA., priority 2017, dated 2020)

Experiments:
LAT1 = LAT1 activity: [^14C]-L-leucine uptake in fibrosarcoma HT-1080 cells after LAT1 gene silencing; format: cell-based, human; conditions: 5 nM siRNA, treatment 6 h, at 48 h, 0.4% Lipofectamine 2000, FIG. 8A
Description: (§1) Cells were plated in 24-well plates (Sarstedt, Germany) and grown until confluence was reached. On the day of the experiment, cell culture medium was aspirated and cells were preincubated for 15 min in Hanks' medium (NaCl 140 mM, KCl 5 mM, MgSO4.7H2O 0.8 mM, K2HPO4 0.33 mM, KH2PO4 0.44 mM, MgCl2.6H2O 1 mM, CaCl2) 0.025 mM, Tris-HCl 9.75 mM, pH 7.4). Uptake was initiated by addition of Hanks' medium with 0.25 μM [^14C]-L-leucine in the absence and in the presence of 3 mM unlabeled L-leucine. During preincubation and incubation cells were continuously shaken and maintained at 37° C. Uptake was terminated after 1 min by rapid removal of uptake solution by means of a vacuum pump connected to a Pasteur pipette, followed by a rapid wash with Hanks' medium. Subsequently, cells were solubilized in 0.1% vol/vol Triton X-100 (dissolved in 5 mM Tris-HCl, pH 7.4), and radioactivity was measured by liquid scintillation counting.
(§2) Cells were plated in 24-well (Sarstedt, Germany) or 6-well plates (Sarstedt, Germany) or 96-well plates with black walls clear bottom (BD Biosciences, USA) and incubated 24 h under normal growth conditions. siRNAs against LAT1 and transfection agent were diluted at desired concentrations and mixed according to transfection agent manufacturer's instructions. The mixture was incubated 20 min at RT for siRNA-complex formation, after which it was added to the cells and incubated at 37° C., 5% CO2. After the incubation period, serum and antibiotic was restored and cells were further incubated at normal conditions for the desired time points until evaluation of LAT1 activity or LAT1 expression (immunoblotting and RT-qPCR).

LAT1 mRNA = assay: LAT1 gene expression (RT-qPCR) after LAT1 gene silencing in human colon cancer HTC-116 cells; format: cell-based; conditions: treatment 6 h
Description: SK-HEP-1, T24, HT-1080 and HCT-116 cell lines were maintained in a humidified atmosphere of 5% CO2 at 37° C. SK-HEP-1 cells were grown in RPMI-1640 (Sigma, St. Louis, Mo.) supplemented with 20% fetal bovine serum (FBS) (Gibco, UK), 100 U/mL penicillin G, 0.25 μg/mL amphotericin B, 100 μg/mL streptomycin (Gibco, UK), 25 mM sodium bicarbonate (Merck, Germany) and 25 mM N-2-hydroxyethylpiperazine-N′-2-ethanosulfonic acid (HEPES) (Sigma, St. Louis, Mo.). T24 and HT-1080 cells were grown, respectively, in Dulbecco's Modified Eagle's Medium (DMEM)—high glucose (Sigma, St. Louis, Mo.) and DMEM—low glucose (Sigma, St. Louis, Mo.), supplemented with 10% FBS (Gibco, UK), 100 U/mL penicillin G, 0.25 μg/mL amphotericin B, 100 μg/mL streptomycin (Gibco, UK), 25 mM sodium bicarbonate (Merck, Germany) and 25 mM HEPES (Sigma, St. Louis, Mo.). HCT-116 cells were grown in McCoy's 5A (Sigma, St. Louis, Mo.) supplemented with 10% FBS (Gibco, UK), 100 U/mL penicillin G, 0.25 μg/mL amphotericin B, 100 μg/mL streptomycin (Gibco, UK), 25 mM sodium bicarbonate (Merck, Germany) and 25 mM HEPES (Sigma, St. Louis, Mo.). For all cell lines the medium was changed every 2 days, and cells reached confluence 3-4 days after initial seeding. For subculturing, cells were dissociated with 0.25% trypsin-ethylenediaminetetraacetic acid (EDTA) (Sigma, St. Louis, Mo.), split 1:15 or 1:20 and subcultured in a 21-cm^2 growth area (Sarstedt, Germany).
Total RNA was isolated and purified using the SV Total RNA Isolation System (Promega, USA) according to manufacturer's instructions. RNA quality and concentration were verified in the NanoDrop ND1000 Spectrophotometer (Thermo Scientific, USA), and RNA integrity and genomic DNA contamination were evaluated by agarose gel electrophoresis. Total RNA (1 μg) was converted into cDNA using the Maxima Scientific First Strand cDNA Synthesis Kit for RT-qPCR (Thermo Scientific, USA), according to instructions. The following protocol was used: 1st step, 10 min at 25° C.; 2nd step, 15 min at 50° C.; 3rd step, 5 min at 85° C. cDNA was used for qPCR analysis using Maxima SYBR Green qPCR Master Mix (Thermo Scientific, USA) in the StepOnePlus instrument (Applied Biosystems, USA). QuantiTect Primer Assay for LAT1 and ASCT2 and for the endogenous control gene GAPDH (Quiagen, Germany) were used. The qPCR reaction was performed in 96-well PCR plates (Sarstedt, Germany) as follows: one cycle of 10 min at 95° C., followed by 40 PCR cycles at 95° C. 15 s and 60° C. 60 s. […] No template controls were always evaluated for each target gene. Quantification cycle (Cq) values were generated automatically by the StepOnePlus 2.3 Software and the ratio of the target gene was expressed in comparison to the endogenous control gene GAPDH.
as §2

ASCT2 = ASCT2 activity: [^14C]-L-alanine uptake in fibrosarcoma HT-1080 cells after ASCT2 gene silencing; format: cell-based, human; conditions: at 48 h
Description: as §1, with “the experiment, Cell culture medium” for “the experiment, cell culture medium”, “Hanks' medium (ChCl 140 mM,” for “Hanks' medium (NaCl 140 mM,”, “initiated by the addition of” for “initiated by addition of”, “0.25 μM [^14C]-L-alanine in the” for “0.25 μM [^14C]-L-leucine in the”, “mM unlabeled L-alanin. During preincubation” for “mM unlabeled L-leucine. During preincubation”
as §2, with “ASCT2” for “LAT1”

58/387/388 (sense CUUCGCCACCUACCUGCUCAATT; antisense UUGAGCAGGUAGGUGGCGAAGTT; siRNA; sugars by position and backbone not given here; further chemistry not fully specified)
[^14C]-L-leucine (0.25 μM) uptake at initial rate of uptake (1 min) (LAT1): decreased | LAT1 mRNA relative abundance (LAT1 mRNA; 5, 25 and 45 nM, concentration dependent, 0.5% Lipofectamine 2000, Lipofectamine RNAiMAX or Injectin, at 72 h, FIGS. 10A and 10B): decreased | LAT1 mRNA relative abundance (LAT1 mRNA; 5 or 25 nM siRNA, at 24 h or 48 h, 0.5% Lipofectamine 2000, FIGS. 9A and 9C): decreased | LAT1 mRNA relative abundance (LAT1 mRNA; 72 h, 0.17% Lipofectamine 2000 or 0.1% Injectin, FIG. 19A): significantly decreased

278/403/404 (sense UGCCACGGUCGCCUCUGAGAATT; antisense UUCUCAGAGGCGACCGUGGCATT; siRNA; sugars by position and backbone not given here; further chemistry not fully specified)
Effect on [^14C]-L-alanine uptake compared with SEQ ID NO: 267/397/398 (ASCT2; HT-1080 cells, 5 nM, p<0.05): significantly greater | [^14C]-L-alanine (0.25 μM) uptake at initial rate of uptake (1 min) (ASCT2; fibrosarcoma HT-1080 cells, 5 nM siRNA, treatment 6 h, 0.4% Lipofectamine 2000, FIG. 8B): decreased
